Columns and labels:
[1] = molecular target: Epidermal growth factor receptor (Homo sapiens, UniProt P00533, C797S/EX18DEL/T790M); test: Inhibition of EGFR del18/T790M/C797S triple mutant (unknown origin) using TK as substrate incubated for 120 mins in the presence of ATP by HTRF assay
BaF3 = test: Antiproliferative activity against mouse BaF3 cells harboring del18/T790M/C797S triple mutant assessed as cell growth inhibition incubated for 72 hrs by cell titre glo luminescence assay; type: functional, cell-based; details: BaF3, 72 h
[2] = molecular target: Epidermal growth factor receptor (Homo sapiens, UniProt P00533, C797S/L858R/T790M); test: Inhibition of EGFR L858R/T790M/C797S triple mutant (unknown origin) using TK as substrate incubated for 120 mins in the presence of ATP by HTRF assay
[3] = molecular target: Epidermal growth factor receptor (Homo sapiens, UniProt P00533); test: Inhibition of wild type EGFR (unknown origin) using TK as substrate incubated for 120 mins in the presence of ATP by HTRF assay
A-431 = test: Antiproliferative activity against human A-431 cells assessed as cell growth inhibition incubated for 72 hrs by cell titre glo luminescence assay; type: functional, cell-based; details: A-431, 72 h
[4] = AUC(0 to infinity) in mouse at 5 mg/kg measured upto 24 hrs by LC-MS/MS analysis; type: ADME, organism-based; set-up: dose 5 mg/kg, time < 24 hrs; details: in vivo
[5] = Cmax in mouse at 5 mg/kg measured upto 24 hrs by LC-MS/MS analysis; type: ADME, organism-based; set-up: time < 24 hrs, dose 5 mg/kg; details: in vivo
[6] = Half-life in mouse at 5 mg/kg measured upto 24 hrs by LC-MS/MS analysis; type: ADME, organism-based; details: in vivo
[7] = MRT in mouse at 5 mg/kg measured upto 24 hrs by LC-MS/MS analysis; type: ADME, organism-based; details: in vivo
[8] = AUC(0 to t) in mouse at 5 mg/kg measured upto 24 hrs by LC-MS/MS analysis; type: ADME, organism-based; set-up: time < 24 hrs, dose 5 mg/kg; details: in vivo

Sequence of Epidermal growth factor receptor (Homo sapiens, UniProt P00533, C797S/EX18DEL/T790M) (P00533 whole entry, looked up, stated change not applied): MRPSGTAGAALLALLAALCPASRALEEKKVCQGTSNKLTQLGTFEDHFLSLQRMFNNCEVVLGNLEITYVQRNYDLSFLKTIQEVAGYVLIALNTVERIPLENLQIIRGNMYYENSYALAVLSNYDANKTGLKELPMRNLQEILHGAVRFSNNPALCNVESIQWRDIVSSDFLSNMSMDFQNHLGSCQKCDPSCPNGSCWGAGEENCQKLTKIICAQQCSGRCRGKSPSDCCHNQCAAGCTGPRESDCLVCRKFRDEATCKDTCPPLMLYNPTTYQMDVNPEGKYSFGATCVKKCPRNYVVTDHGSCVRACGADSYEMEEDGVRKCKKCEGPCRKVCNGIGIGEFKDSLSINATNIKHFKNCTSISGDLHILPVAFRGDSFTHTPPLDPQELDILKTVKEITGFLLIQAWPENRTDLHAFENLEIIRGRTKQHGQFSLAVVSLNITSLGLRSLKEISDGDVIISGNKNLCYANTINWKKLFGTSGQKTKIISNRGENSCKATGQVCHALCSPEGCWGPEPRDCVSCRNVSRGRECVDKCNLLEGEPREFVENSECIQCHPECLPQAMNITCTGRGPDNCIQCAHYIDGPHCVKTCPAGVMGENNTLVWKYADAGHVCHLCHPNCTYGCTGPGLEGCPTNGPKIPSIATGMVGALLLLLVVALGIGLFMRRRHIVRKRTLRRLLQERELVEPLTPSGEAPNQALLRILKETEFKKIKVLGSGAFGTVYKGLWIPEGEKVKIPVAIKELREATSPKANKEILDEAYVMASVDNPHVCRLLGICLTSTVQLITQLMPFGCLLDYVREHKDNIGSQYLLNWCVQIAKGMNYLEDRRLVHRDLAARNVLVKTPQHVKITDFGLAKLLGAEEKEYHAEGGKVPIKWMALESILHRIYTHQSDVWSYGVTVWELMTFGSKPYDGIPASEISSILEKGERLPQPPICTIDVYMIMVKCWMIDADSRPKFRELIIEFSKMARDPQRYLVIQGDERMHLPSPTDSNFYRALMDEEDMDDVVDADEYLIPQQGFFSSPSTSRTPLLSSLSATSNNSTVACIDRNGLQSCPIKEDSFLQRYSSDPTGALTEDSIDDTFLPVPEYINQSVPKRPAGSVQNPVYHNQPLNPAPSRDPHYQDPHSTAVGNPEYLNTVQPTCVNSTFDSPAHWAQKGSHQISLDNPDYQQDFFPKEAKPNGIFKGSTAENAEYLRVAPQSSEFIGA
Sequence of Epidermal growth factor receptor (Homo sapiens, UniProt P00533) (P00533 whole entry): as the sequence (P00533 whole entry, looked up, stated change not applied) above
Sequence of Epidermal growth factor receptor (Homo sapiens, UniProt P00533, C797S/L858R/T790M) (P00533 25-1210 T790M/C797S/L858R limits assumed): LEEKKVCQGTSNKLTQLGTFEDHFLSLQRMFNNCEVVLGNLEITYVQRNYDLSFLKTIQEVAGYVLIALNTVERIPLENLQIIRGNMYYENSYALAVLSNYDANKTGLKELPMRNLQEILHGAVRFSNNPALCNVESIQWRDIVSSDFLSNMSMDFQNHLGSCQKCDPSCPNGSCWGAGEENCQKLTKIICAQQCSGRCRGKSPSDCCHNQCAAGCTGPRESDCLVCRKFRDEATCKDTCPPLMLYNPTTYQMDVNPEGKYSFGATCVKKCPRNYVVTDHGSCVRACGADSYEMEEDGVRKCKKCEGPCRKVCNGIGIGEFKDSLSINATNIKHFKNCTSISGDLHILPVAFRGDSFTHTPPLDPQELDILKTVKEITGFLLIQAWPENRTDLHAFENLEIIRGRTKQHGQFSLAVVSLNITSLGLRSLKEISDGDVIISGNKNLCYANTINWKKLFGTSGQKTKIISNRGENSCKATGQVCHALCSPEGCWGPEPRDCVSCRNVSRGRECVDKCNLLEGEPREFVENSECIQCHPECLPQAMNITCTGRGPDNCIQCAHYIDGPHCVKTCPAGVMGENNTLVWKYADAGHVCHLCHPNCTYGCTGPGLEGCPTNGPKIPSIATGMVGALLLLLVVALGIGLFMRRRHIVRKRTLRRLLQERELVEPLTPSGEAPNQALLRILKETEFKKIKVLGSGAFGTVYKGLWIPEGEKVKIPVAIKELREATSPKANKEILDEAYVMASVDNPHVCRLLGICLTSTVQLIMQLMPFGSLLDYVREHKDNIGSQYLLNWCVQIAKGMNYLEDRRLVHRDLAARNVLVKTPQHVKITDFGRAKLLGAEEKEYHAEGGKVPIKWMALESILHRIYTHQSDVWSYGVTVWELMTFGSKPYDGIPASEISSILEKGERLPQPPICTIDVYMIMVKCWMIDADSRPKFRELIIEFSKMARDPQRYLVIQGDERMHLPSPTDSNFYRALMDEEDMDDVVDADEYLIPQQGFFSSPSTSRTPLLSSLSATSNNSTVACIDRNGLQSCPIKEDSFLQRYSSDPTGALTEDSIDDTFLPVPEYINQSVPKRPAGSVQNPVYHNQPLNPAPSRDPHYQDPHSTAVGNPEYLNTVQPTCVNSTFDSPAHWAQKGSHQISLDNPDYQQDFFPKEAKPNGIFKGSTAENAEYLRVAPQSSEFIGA

| SMILES | IC50 [1] [nM] | IC50 (BaF3) [nM] | IC50 [2] [nM] | IC50 [3] [nM] | IC50 (A-431) [nM] | AUC(0-inf) [4] [ng·h/mL] | Cmax [5] [ng/mL] | half-life [6] [h] | MRT [7] [h] | AUC(0-t) at 24 h [8] [ng·h/mL] |
| --- | --- | --- | --- | --- | --- | --- | --- | --- | --- | --- |
| CCc1cc(Nc2ncc(Br)c(Nc3ccn4ncnc4c3P(C)(C)=O)n2)c(OC)cc1N1CCC(N2CCN(CC)CC2)CC1 | 0.1 | 34 | 0.67 | > 500 | 731 |  |  |  |  |  |
| CCOC1CN(C2CCN(c3cc(OC)c(Nc4ncc(Br)c(Nc5ccc6nccnc6c5P(C)(C)=O)n4)cc3C)CC2)C1 | 0.65 | 29 | 0.43 | 652 | 422 |  |  |  |  |  |
| CCc1cc(Nc2ncc(Br)c(Nc3ccn4ncnc4c3P(C)(C)=O)n2)c(OC)cc1N1CCC(N2CCOCC2)CC1 | 0.18 | 40 | 0.93 | > 500 | 1300 |  |  |  |  |  |
| CCN(C)C1CN(C2CCN(c3cc(OC)c(Nc4ncc(Br)c(Nc5ccc6c(c5P(C)(C)=O)OCCO6)n4)cc3C)CC2)C1 |  | 35 | 0.28 | > 500 |  |  |  |  |  |  |
| COc1cc(N2CCC(N3CC[C@H](N(C)C)C3)CC2)c(C)cc1Nc1ncc(Br)c(Nc2ccc3c(c2P(C)(C)=O)OCCO3)n1 | 0.12 | 28 | 0.15 |  |  |  |  |  |  |  |
| CCOC1CN(C2CCN(c3cc(OC)c(Nc4ncc(Br)c(Nc5ccc6c(c5P(C)(C)=O)OCCO6)n4)cc3C)CC2)C1 |  | 32 |  |  |  | 25300 | 2030 | 3.2 | 6.1 | 25200 |
| CCOC1CN(C2CCN(c3cc(OC)c(Nc4ncc(Br)c(Nc5ccc6ncnn6c5P(C)(C)=O)n4)cc3CC)CC2)C1 | 0.9 | 44 | 0.67 | > 500 | 1010 |  |  |  |  |  |
| CCc1cc(Nc2ncc(Br)c(Nc3ccc4ncnn4c3P(C)(C)=O)n2)c(OC)cc1N1CCC(N2CC(COC)C2)CC1 | 0.1 | 37 | 0.84 | > 500 | 702 |  |  |  |  |  |
| CCO[C@@H]1CCN(C2CCN(c3cc(OC)c(Nc4ncc(Br)c(Nc5ccc6c(c5P(C)(C)=O)OCCO6)n4)cc3C)CC2)C1 | 0.28 | 30 | 0.41 |  |  | 11200 | 1260 | 3.5 | 5.5 | 11100 |

Compounds with a lower IC50 (BaF3), results first:

| IC50 [1] [nM] | IC50 (BaF3) [nM] | IC50 [2] [nM] | IC50 [3] [nM] | IC50 (A-431) [nM] | AUC(0-inf) [4] [ng·h/mL] | Cmax [5] [ng/mL] | half-life [6] [h] | MRT [7] [h] | AUC(0-t) at 24 h [8] [ng·h/mL] | SMILES |
| --- | --- | --- | --- | --- | --- | --- | --- | --- | --- | --- |
| 0.06 | 13 | 0.09 |  |  |  |  |  |  |  | COc1cc(N2CCC(N3CC(N(C)C)C3)CC2)c(C)cc1Nc1ncc(Br)c(Nc2ccc3nccnc3c2P(C)(C)=O)n1 |
| 0.13 | 20 | 0.19 |  |  |  |  |  |  |  | COc1cc(N2CCC(N3CCCOCC3)CC2)c(C)cc1Nc1ncc(Br)c(Nc2ccc3c(c2P(C)(C)=O)OCCO3)n1 |
| 0.3 | 13 | 0.22 |  |  | 16500 | 1680 | 5.6 | 6 | 16400 | COc1cc(N2CCC(N3CC(N(C)C)C3)CC2)c(C)cc1Nc1ncc(Br)c(Nc2ccc3c(c2P(C)(C)=O)OCCO3)n1 |
| 0.15 | 12 | 0.12 |  |  |  |  |  |  |  | CCc1cc(Nc2ncc(Br)c(Nc3ccc4c(c3P(C)(C)=O)OCCO4)n2)c(OC)cc1N1CCC(N2CC(COC)C2)CC1 |
| 0.05 | 24 | 0.1 |  |  |  |  |  |  |  | COc1cc(N2CCC(N3CCCN(C)CC3)CC2)c(C)cc1Nc1ncc(Br)c(Nc2ccc3c(c2P(C)(C)=O)OCCO3)n1 |
| 0.49 | 7 | 0.41 | 416 |  |  |  |  |  |  | CCc1cc(Nc2ncc(Br)c(Nc3ccc4c(c3P(C)(C)=O)OCCO4)n2)c(OC)cc1N1CCC(N2CC(CC#N)C2)CC1 |
| 0.83 | 9 | 0.27 | 3000 | 490 |  |  |  |  |  | CCc1cc(Nc2ncc(Br)c(Nc3ccc4nccnc4c3P(C)(C)=O)n2)c(OC)cc1N1CCC(N2CCCN(C)CC2)CC1 |
| 0.08 | 8 | 0.08 |  |  | 21400 | 2110 | 4 | 6.3 | 21000 | CCc1cc(Nc2ncc(Br)c(Nc3ccc4c(c3P(C)(C)=O)OCCO4)n2)c(OC)cc1N1CCC(N2CC(N(C)C)C2)CC1 |
